Reference: patent US6673778B1, “Enzyme inhibitors for metabolic redirection” (The Board of Regents of the University of Nebraska, priority 1996, dated 2004)
In the oligonucleotide strings, read from the 5' end, every base follows the letter of its sugar. An asterisk marks phosphorothioate; unmarked linkages are phosphodiester. Other units and linkages are bracketed, terminal groups are in braces. A string of capitals states the bases alone. d = 2'-deoxy (DNA)

Key:
CYP3A2 = test: Erythromycin demethylation (ED) in liver microsomes; assay type: in vivo, rat
Description: Sleep time was measured after i.p. injection of 50 mg/kg MZ (Hoffman-La Roche, Nutley, N.J.) at 0 (day 1), 24 (day 2) and 48 h (day 4). The volume of the injection was from 2.0 to 2.4 ml/rat. […] The rats were treated with 0.25, 0.50 or 1.00 mg antisense ODN i.p. immediately after the animal had regained its righting reflex determined at 0 and 24 h. Control rats received saline only. Total volume injection was 0.1 ml in saline.
Microsomes were prepared, as described by Franklin and Estabrook (cited above) for determination of enzyme level and activity.
Erythromycin demethylation (ED) was used a measure of CYP3A2 enzymatic activity (Gonzalez, Pharmacol. Rev. 40:243-87, 1989). Activity was recorded as micromoles of formaldehyde per milligram of protein per minute.

rat CYP3A2 = test: Midazolam sleep time in rats; assay type: in vivo; settings: MZ 50 mg/kg i.p.
Description: Male Sprague-Dawley rats (Sasco, Omaha) weighing between 210 to 290 grams were used for all studies. The animals were exposed to 12 hour light/dark cycle and fed Purina rat chow and tap water ad libitum.
Sleep time was measured after i.p. injection of 50 mg/kg MZ (Hoffman-La Roche, Nutley, N.J.) at 0 (day 1), 24 (day 2) and […]. The volume of the injection was from 2.0 to 2.4 ml/rat. […] […] Control rats received saline only. Total volume injection was 0.1 ml in saline.

| Substance | ED (erythromycin demethylase activity) (CYP3A2; 1000 μg/day i.p.) | MZ ST (midazolam sleep time) (rat CYP3A2; 1000 μg/day i.p.) | ED (erythromycin demethylase activity) (CYP3A2; 100 μg/day i.p.) | MZ ST (midazolam sleep time) (rat CYP3A2; 100 μg/day i.p.) |
| --- | --- | --- | --- | --- |
| REV3A2/PS: PS DNA reverse control, SEQ ID NO: 43, 5′-TACCTCGACGAAAGTCGAGAGT-3′ (antisense dT*dA*dC*dC*dT*dC*dG*dA*dC*dG*dA*dA*dA*dG*dT*dC*dG*dA*dG*dA*dG*dT) | 91 μmol HCOH/mg/min | 22.4 ± 0.6 min | – | – |
| ATGMYC/PS: PS DNA myc control, SEQ ID NO: 44, 5′-ACGTTGAGGGGCAUCGTCC-3′ (DNA, all phosphorothioate, T or U not given here) | 113 μmol HCOH/mg/min | 22.8 ± 1.3 min | – | – |
| AUGM:YC/PMO: PMO myc control, SEQ ID NO: 44, 5′-ACGUUGAGGGGCAUCGUCC-3′ (all phosphorodiamidate morpholino (PMO), T or U not given here) | – | – | 110 μmol HCOH/mg/min | 20.6 ± 0.6 min |
